Our source for the GI50 and TGI values is PubChem BioAssay (NCI).

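96-well plates; 48 h exposure; 5 concentrations. Endpoints by linear interpolation between flanking doses. Not reached: highest tested concentration assigned. The concentration for 50% growth inhibition is given as GI50. Definition used: TGI = concentration required for complete inhibition of growth.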

As usually defined, the GI50 is the concentration giving 50% growth inhibition. In general, TGI refers to the concentration at which net growth stops. A lower TGI goes with greater sensitivity of the cells.

The subject of the first test is MALME-3M melanoma. Briefly: DTP human tumour cell line panel, 48 h.
Consider `COc1cc2cc(Oc3ccc(NC(=O)Nc4ccc(Cl)c(C(F)(F)F)c4)cc3)c(C)nc2cc1OCCN1CCCCC1`, for which the GI50 was 1.62 µM and the TGI was 3.13 µM.

`CC1CC2C(=O)NC(=O)C2c2[nH]c3ccccc3c21` (centres undefined) gave a TGI greater than 100 µM.

Take `Cc1ccc2c(c1)C1(C)OC(CC(N)C1O)O2` (centres undefined): the TGI was greater than 100 µM.

`COC(=O)[C@@H]1CSC(=S)N1C(=O)C[C@H]1CC=CC[C@H]1CC(=O)Sc1ccccc1`: the TGI was 56.7 µM. In other words, the double-digit micromolar range.

As for `COc1cc(Cn2cc3c(c2)-c2oncc2CC3)cc(OC)c1OC`, the 50% growth inhibitory concentration (GI50) was 0.0254 µM and the TGI was determined as 30.3 µM.

Take `C=C1C(=O)OC2CC3(C)C=CC(=O)C(=C)C3CC12` (centres undefined): the TGI was 4.02 µM.

The molecule `CCOP(=O)(OCC)C1CCCCOC1=O` (centres undefined) showed a total growth inhibition concentration (TGI) greater than 100 µM.

The subject of another test is UO-31 renal. Nature of the test: DTP human tumour cell line panel, 48 h.
`CN(C)c1ccc2c(NCCCCCCNc3ccnc4cc(N(C)C)ccc34)ccnc2c1` registered a TGI greater than 100 µM.

Take `CCN1C(=O)N(CC)C2C1NN=c1s/c(=C3\C(=O)N(C(C)C)c4ccccc43)c(=O)n12` (centres undefined): the GI50 is 0.636 µM and the TGI was greater than 100 µM.

For `Nc1cc(=O)[nH]c(SC2=NC(N)CC(O)C2)n1` (centres undefined), the TGI was greater than 100 µM.

For the molecule `CC(=O)[O][Pb]([O]C(C)=O)([c]1ccccc1)[c]1ccccc1`, the GI50 is greater than 100 µM and the TGI is greater than 100 µM.

For the molecule `CN1CCc2c1nc(-c1ccccc1)c1c2N(C)CC1`, the TGI was 78.5 µM.

`CCC[CH2][Sn]([CH2]CCC)([O]C(C)=O)[O]C(C)=O`: the GI50 is 1.72 µM and the TGI came out at 3.13 µM.

For the molecule `COC(=O)CCC(=O)N1Cc2cc(C)ccc2N(C(=O)CCC(=O)OC)Cc2cc(C)ccc21`, the TGI is greater than 100 µM.

As for `C=C1C(=O)O[C@H]2C[C@@H](C)[C@@H]3CC(=O)OC[C@@]3(C)CC12` (some centres undefined), the TGI is greater than 100 µM.

`CS(=O)(=O)CC1=Nc2nnc(CCCCCCCc3nnc4n3C(=O)C(CS(C)(=O)=O)=N4)n2C1=O` came in with a TGI greater than 100 µM.

Consider `COc1ccccc1[N-]C(C1=C([O-])c2ccccc2C1=O)c1ccccc1.COc1ccccc1[N-]C(C1=C([O-])c2ccccc2C1=O)c1ccccc1.[Cu+2]` (centres undefined), for which the GI50 is 12 µM and the TGI came out at 75.2 µM.

Molecule `O=C(NCCCCCCNC(=O)c1cccc2ccccc12)c1cccc2ccccc12` showed a TGI of 66.3 µM. This lies in the double-digit micromolar range.

Molecule `COC12C=CC(CC1)c1c(O)ccc(O)c12` (centres undefined) gave a TGI greater than 100 µM.

For the molecule `Nc1ncnc2sc(=S)c3c(c12)CCC3`, the GI50 was 43.8 µM and the TGI was greater than 100 µM.

`CC1=C2CCCC2C/C(=N/Nc2ccc([N+](=O)[O-])cc2[N+](=O)[O-])CC1` (centres undefined): the TGI was greater than 100 µM.

As to `COc1cc2cc(Oc3ccc(NC(=O)Nc4ccc(Cl)c(C(F)(F)F)c4)cc3)c(C)nc2cc1OCCN1CCCCC1`, the GI50 was 1.36 µM and the TGI amounted to 2.69 µM.

With `C=CCC(N[C@H](CO)C(C)C)c1cn(C(=O)OCC)c2ccccc12` (some centres undefined), the GI50 was 45.2 µM and the TGI was greater than 100 µM.

`CC1CC2C(=O)NC(=O)C2c2[nH]c3ccccc3c21` (centres undefined) came in with a concentration for total growth inhibition (TGI) greater than 100 µM.

Regarding `Cc1ccc2c(c1)C1(C)OC(CC(N)C1O)O2` (centres undefined), the TGI is greater than 100 µM.

In the case of `COC(=O)[C@@H]1CSC(=S)N1C(=O)C[C@H]1CC=CC[C@H]1CC(=O)Sc1ccccc1`, the TGI worked out at 26.8 µM.

For the molecule `COc1cc(Cn2cc3c(c2)-c2oncc2CC3)cc(OC)c1OC`, the GI50 is 0.0594 µM and the TGI came out at 15.1 µM.

The molecule `CC1(Sc2ccccc2)CN(Cc2ccccc2)C1=O` (centres undefined) gave a TGI greater than 100 µM.

`C=C1C(=O)OC2CC3(C)C=CC(=O)C(=C)C3CC12` (centres undefined) showed a TGI of 3.13 µM.

In the case of `COc1cccc(OC(=O)c2ccccc2Nc2ccnc(C(F)(F)F)c2)c1`, the GI50 is 61.2 µM and the TGI is greater than 100 µM.

Molecule `CCOP(=O)(OCC)C1CCCCOC1=O` (centres undefined) showed a TGI greater than 100 µM.

For the next test, the system named is T-47D breast. Nature of the test: DTP human tumour cell line panel, 48 h.
Take `C=CCC(N[C@H](CO)C(C)C)c1cn(C(=O)OCC)c2ccccc12` (some centres undefined): the GI50 is 39.9 µM and the TGI is greater than 100 µM.

As to `COc1cccc(OC(=O)c2ccccc2Nc2ccnc(C(F)(F)F)c2)c1`, the GI50 was 50.5 µM and the TGI is greater than 100 µM.

The test system of another test is M14 melanoma. Briefly: DTP human tumour cell line panel, 48 h.
`CN(C)c1ccc2c(NCCCCCCNc3ccnc4cc(N(C)C)ccc34)ccnc2c1` came in with a TGI greater than 100 µM.

For `CCN1C(=O)N(CC)C2C1NN=c1s/c(=C3\C(=O)N(C(C)C)c4ccccc43)c(=O)n12` (centres undefined), the GI50 is 0.376 µM and the TGI was greater than 100 µM.

For the molecule `Nc1cc(=O)[nH]c(SC2=NC(N)CC(O)C2)n1` (centres undefined), the TGI is greater than 100 µM.

On to `CC(=O)[O][Pb]([O]C(C)=O)([c]1ccccc1)[c]1ccccc1`, for which the GI50 is greater than 48 µM and the TGI is greater than 100 µM.

On to `CN1CCc2c1nc(-c1ccccc1)c1c2N(C)CC1`, for which the TGI was greater than 100 µM.

As to `CCC[CH2][Sn]([CH2]CCC)([O]C(C)=O)[O]C(C)=O`, the GI50 is 1.74 µM and the TGI came to 4.26 µM.

As to `COC(=O)CCC(=O)N1Cc2cc(C)ccc2N(C(=O)CCC(=O)OC)Cc2cc(C)ccc21`, the TGI was greater than 100 µM.

Molecule `C=C1C(=O)O[C@H]2C[C@@H](C)[C@@H]3CC(=O)OC[C@@]3(C)CC12` (some centres undefined) showed a TGI of 31.6 µM.

In the case of `CS(=O)(=O)CC1=Nc2nnc(CCCCCCCc3nnc4n3C(=O)C(CS(C)(=O)=O)=N4)n2C1=O`, the TGI was greater than 100 µM.

`COc1ccccc1[N-]C(C1=C([O-])c2ccccc2C1=O)c1ccccc1.COc1ccccc1[N-]C(C1=C([O-])c2ccccc2C1=O)c1ccccc1.[Cu+2]` (centres undefined): the GI50 was 4.58 µM and the TGI was greater than 100 µM.

Turning to `O=C(NCCCCCCNC(=O)c1cccc2ccccc12)c1cccc2ccccc12`, the TGI is greater than 100 µM.

The molecule `COC12C=CC(CC1)c1c(O)ccc(O)c12` (centres undefined) returned a TGI greater than 100 µM.

For the molecule `Nc1ncnc2sc(=S)c3c(c12)CCC3`, the GI50 was 42.7 µM and the TGI is greater than 100 µM.

`CC1=C2CCCC2C/C(=N/Nc2ccc([N+](=O)[O-])cc2[N+](=O)[O-])CC1` (centres undefined) came in with a TGI greater than 100 µM.

With `COc1cc2cc(Oc3ccc(NC(=O)Nc4ccc(Cl)c(C(F)(F)F)c4)cc3)c(C)nc2cc1OCCN1CCCCC1`, the GI50 is 1.92 µM and the TGI was 3.78 µM.

With `C=CCC(N[C@H](CO)C(C)C)c1cn(C(=O)OCC)c2ccccc12` (some centres undefined), the GI50 was 21.3 µM and the TGI was 46 µM.
